Results on 1 molecule are retold here after EPA's ToxValDB 9.5 (doi:10.2903/j.efsa.2010.1523).

One data set deals with Aphidius rhopalosiphi. As to the kind of experiment: LR50; higher = less toxic. The following applies: not reported; mortality.
The test system of the next data set is Tagia sp. The settings on record: acute; duration: 14 days; mortality.
In another data set the test system is Apis mellifera. The settings on record: acute; duration: 48 hours; dermal; mortality.
For a further data set, the system named is Rattus norvegicus. The following applies: acute; oral; mortality.
For the next data set, the system named is Canidae. The following applies: chronic; duration: 1 years; oral; Dog Other; hematological.
Another data set has as its system Coturnix japonica. The following applies: reproduction developmental.
In another data set the test system is Colinus virginianus. The settings on record: acute, oral, mortality.
Another data set deals with Mus musculus. The settings on record: acute; oral; mortality.
Another data set has as its system Daphnia magna. The following applies: chronic/long-term; duration: 21 days; reproduction.

In brackets after ≈: the same amount, converted by molar mass.

As usually defined, the NOAEL is the highest tested level that showed no adverse finding. The molecule `Cc1cnc2c(C(=O)O)c(Cl)ccc2c1` [Quinmerac] gave an LR50 in the data set with Aphidius rhopalosiphi greater than 500 g/ha. Moreover, the LC50 is greater than 1000 mg/kg in the data set with Tagia sp.; 86.8 µg/mL (≈ 392 µM) in the data set with Oncorhynchus mykiss (acute, duration: 96 hours, mortality); greater than 933 mg/kg-day with Colinus virginianus (diet). Moreover, the NOEC with Oncorhynchus mykiss (chronic/long-term, duration: 28 days, growth) amounted to 3.16 mg/L; with Coturnix japonica it was 173 mg/kg-day; in the data set on Daphnia magna, 100 mg/L. Moreover, the LD50 in the data set on Apis mellifera was greater than 100 µg/piece; with Rattus norvegicus, greater than 5000 mg/kg-day; in the data set with Colinus virginianus it was greater than 2000 mg/kg-day; in the data set with Mus musculus, greater than 5000 mg/kg-day. The NOEL in the data set on Oryctolagus sp. (chronic) was found to be 100 mg/kg-day. Further, the NOAEL worked out at 30 mg/kg-day in the data set with Oryctolagus sp. (developmental, development) and 7.9 mg/kg-day with Canidae.
